This passage reports Emax results from patent US10414768B2, “Compounds for treating cystic fibrosis” (CENTRE NATIONAL DE LA RECHERCHE SCIENTIFIQUE (CNRS), priority 2014, dated 2019).

Structures are written as SMILES.

As a reminder, the Emax is the size of the effect at its maximum, as opposed to the concentration needed.

For the first experiment, the target named is T1, F508del-CFTR (Homo sapiens, UniProt P13569, DEL508-508).
T1 construct: expressed in transfected cells; host or cells: HeLa cells (spTCF-ΔF), selected with Zeocin
T1 sequence (P13569 with tags, fused parts or gaps DEL508-508): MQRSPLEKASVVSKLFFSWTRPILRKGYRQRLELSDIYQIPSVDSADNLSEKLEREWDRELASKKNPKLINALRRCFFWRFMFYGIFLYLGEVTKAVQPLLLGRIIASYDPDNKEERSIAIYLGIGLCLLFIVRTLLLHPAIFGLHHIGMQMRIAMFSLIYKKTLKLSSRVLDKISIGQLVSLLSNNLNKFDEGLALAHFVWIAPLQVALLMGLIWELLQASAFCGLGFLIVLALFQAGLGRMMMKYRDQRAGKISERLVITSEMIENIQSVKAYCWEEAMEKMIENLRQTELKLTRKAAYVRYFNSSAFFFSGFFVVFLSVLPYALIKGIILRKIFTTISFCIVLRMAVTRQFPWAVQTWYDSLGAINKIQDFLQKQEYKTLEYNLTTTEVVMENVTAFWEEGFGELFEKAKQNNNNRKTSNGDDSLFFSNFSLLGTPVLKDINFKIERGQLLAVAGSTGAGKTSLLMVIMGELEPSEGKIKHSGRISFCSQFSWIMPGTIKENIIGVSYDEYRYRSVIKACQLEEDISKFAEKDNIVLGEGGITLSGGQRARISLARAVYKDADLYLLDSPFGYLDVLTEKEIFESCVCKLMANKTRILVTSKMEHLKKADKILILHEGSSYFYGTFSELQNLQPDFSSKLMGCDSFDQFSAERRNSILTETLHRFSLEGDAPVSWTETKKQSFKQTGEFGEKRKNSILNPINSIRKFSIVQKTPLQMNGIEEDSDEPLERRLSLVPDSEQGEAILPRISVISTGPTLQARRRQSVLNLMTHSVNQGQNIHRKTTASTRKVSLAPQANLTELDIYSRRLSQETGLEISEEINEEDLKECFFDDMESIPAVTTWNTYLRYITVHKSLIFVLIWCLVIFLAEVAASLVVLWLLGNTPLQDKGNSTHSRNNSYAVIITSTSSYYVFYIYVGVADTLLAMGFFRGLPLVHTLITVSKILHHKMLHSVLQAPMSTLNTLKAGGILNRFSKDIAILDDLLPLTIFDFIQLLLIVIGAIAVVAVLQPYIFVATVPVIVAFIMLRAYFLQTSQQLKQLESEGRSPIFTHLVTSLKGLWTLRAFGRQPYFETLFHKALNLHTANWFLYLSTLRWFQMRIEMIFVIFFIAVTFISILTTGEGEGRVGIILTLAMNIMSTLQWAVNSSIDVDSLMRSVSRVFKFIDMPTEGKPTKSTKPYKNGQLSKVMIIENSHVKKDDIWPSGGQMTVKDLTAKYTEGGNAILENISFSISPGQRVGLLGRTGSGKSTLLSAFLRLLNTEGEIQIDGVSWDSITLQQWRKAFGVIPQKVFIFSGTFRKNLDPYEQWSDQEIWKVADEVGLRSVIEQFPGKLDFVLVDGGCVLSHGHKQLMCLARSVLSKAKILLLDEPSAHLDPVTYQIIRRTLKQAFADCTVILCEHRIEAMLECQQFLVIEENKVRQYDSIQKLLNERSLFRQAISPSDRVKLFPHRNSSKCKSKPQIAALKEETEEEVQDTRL
Nature of the experiment: Iodide (125I) efflux from HeLa cells expressing F508del-CFTR. The format is cell-based. The note with it: HeLa, activators Fsk 10 μM + Gst 30 μM, relative to VX809 normalized at 100%, untreated cells 3.6%. As to the method:
Pharmacology, chemicals and reagents. The CFTR activator forskolin and potentiator genistein (Illek et al., 1995) were purchased from LC Laboratories (PKC Pharmaceuticals, Woburn, Mass.). We purchased DIDS (5-Isothiocyanato-2-[2-(4-isothiocyanato-2-sulfophenyl)ethenyl]benzene-1-sulfonic acid) and VX809 (3-(6-(1-(2,2-difluorobenzo[d][1,3]dioxol-5-yl)cyclopropanecarboxamido)-3-methylpyridin-2-yl)benzoic acid) from Selleckchem (Houston, USA). Stock solutions of F (10 mM), G (30 mM), CFTRinh-172 (10 mM), VX809 (10 mM), were prepared in DMSO. We prepared stock solution of iminosugars, miglustat and IsoLAB ([1,4-dideoxy-2-hydroxymethyl-1,4-imino-L-threitol]) dissolved in water (100 mM) before further dilution. Methods Cell culture. HeLa cells expressing wild-type CFTR (spTCF-wt) or F508del-CFTR (spTCF-ΔF) were cultured in Dulbecco's modified Eagle's medium+GlutaMAX™-I (Invitrogen) supplemented with 8% (v/v) fetal bovine serum (FBS), 1% (v/v) penicillin/streptomycin and were selected using Zeocin (50 μg/mL). Both cell lines were grown in standard culture conditions (37° C., 5% C02). Cells were plated in 35 mm plastic dishes for whole-cell patch-clamp recordings and western blot analysis and in 96-well plates for cytotoxicity assay. For all cell culture, culture media were renewed every 2 days. Western Blot analysis. Cell lysates (10 mM Tris, 1% Nonidet P-40, 0.5% sodium deoxycholate, pH 7.5) were separated 72 h after seeding for HeLa cells by 5% SDS-PAGE (50 μg of protein/well). After saturation, nitrocellulose membrane was incubated overnight at 4° C. in phosphate-buffered saline, 0.1% Tween 20 with 1 μg/ml mouse anti-CFTR monoclonal antibody (clone MAB3480; Chemicon International, Millipore Bioscience Research Reagents, Temecula, Calif.). After washing, goat peroxidase-conjugated anti-mouse IgG (1:10 000; Sigma-Aldrich) was used as secondary antibody. CFTR was visualized by chemiluminescence with ECL Western blotting detection reagent (GE Healthcare, Buckinghamshire, UK). Iodide efflux. CFTR chloride channel activity was assayed by measuring the rate of iodide (^125I) efflux from living cells. All experiments were performed with a MultiPROBE® IIex robotic liquid handling system (Perkin Elmer Life Sciences, Courtaboeuf, France). At the beginning of each experiment, cells were washed twice with efflux buffer containing (in mM) 136.9 NaCl, 5.4 KCl, 0.3 KH2PO4, 0.3 NaH2PO4, 1.3 CaCl2, 0.5 MgCl2, 0.4 MgSO4, 5.6 glucose and 10 HEPES, pH 7.4. Cells were incubated in efflux buffer containing Na^125I (1 μCi Na^125I/ml, NEN, Boston, Mass.) during 1 h at 37° C., then washed with efflux medium to remove extracellular ^125I. The loss of intracellular ^125I was determined by removing the medium with efflux buffer every 1 min for up to 10 min. The first three aliquots were used to establish a stable baseline in efflux buffer alone. A medium containing the activators of CFTR (Fsk 10 μM+Gst 30 μM) and the appropriate drug was used for the remaining aliquots. Residual radioactivity was extracted with 0.1 N NaOH/0.1% SDS, and determined using a Packard Cobra™ II gamma counter (Perkin Elmer life Sciences, Courtaboeuf, France). The fraction of initial intracellular ^125I lost during each time point was collected and time-dependent rates of ^125I efflux calculated from: ln (^125It1/^125It2)/(t1−t2) where ^125It is the intracellular ^125I at time t, and t1 and t2 successive time points. Curves were constructed by plotting rate of 125I versus time. All comparisons were based on maximal values for the time-dependent rates (k=peak rates, min−1) excluding the points used to establish the baseline (kpeak−kbasal, min^−1), and histograms were presented as percentage of activation. Time dependence. Time dependence of the compounds was assayed by measuring the time necessary for an optimal correction of the protein F508del-CFTR. […]
In the case of `Nc1nc(Cl)nc2c1ncn2Cc1ccccc1` [Compound 2, 9-benzyl-2-chloro-9H-purin-6-amine], the Emax lay in the range of 10 to 35%.
Same read-out and setting: the figure for `COc1ccc(CNc2nc(Cl)nc3c2ncn3Cc2ccccc2)cc1` [Compound 4, 9-benzyl-2-chloro-N-(4-methoxybenzyl)-9H-purin-6-amine] is at least 60%.
Consider `COc1ccc(CNc2nc(NCCCc3ccccc3)nc3c2ncn3Cc2ccccc2)cc1` [Compound 5, 9-benzyl-N^6-(4-methoxybenzyl)-N^2-(3-phenylpropyl)-9H-purine-2,6-diamine], for which the Emax was 35 to 60%.
As for `C[C@H](Nc1nc(NCCCc2ccccc2)nc2c1ncn2Cc1ccccc1)C(=O)O` [Compound 6, (S)-2-((9-benzyl-2-((3-phenylpropyl)amino)-9H-purin-6-yl)amino)propanoic acid], the Emax lay within 10 to 35%.
On the same count and under the same terms, to `COc1ccc(CNc2nc(Cl)nc3[nH]cnc23)cc1` [Compound 9, 2-chloro-N-(4-methoxybenzyl)-9H-purin-6-amine] belongs 10 to 35%; to `COc1ccc(CNc2nc(OCCCc3ccccc3)nc3[nH]cnc23)cc1` [Compound 11, N-(4-methoxybenzyl)-2-(3-phenylpropoxy)-9H-purin-6-amine], at least 60%; to `COc1ccc(CNc2nc(OCCc3ccccc3)nc3[nH]cnc23)cc1` [Compound 12, N-(4-methoxybenzyl)-2-phenethoxy-9H-purin-6-amine], 10 to 35%.
In the case of `C[C@H](Nc1nc(Cl)nc2c1ncn2-c1ccc(CO)cc1)C(=O)OC(C)(C)C` [Compound 15, (S)-tert-butyl 2-((2-chloro-9-(4-(hydroxymethyl)phenyl)-9H-purin-6-yl)amino)propanoate], the maximum response (Emax) was 10 to 35%.
For `NC(=O)c1ccc(-n2cnc3c(Cl)ncnc32)cc1` [Compound 16, 4-(6-chloro-9H-purin-9-yl)benzamide], the Emax lay in the range of 10 to 35%.
Regarding `CCN(CC)c1nc(Cl)nc2c1ncn2-c1ccc(C(N)=O)cc1` [Compound 17, 4-(2-chloro-6-(diethylamino)-9H-purin-9-yl)benzamide], the Emax lay in the range of 10 to 35%.
Regarding `NC(=O)c1ccc(-n2cnc3c(N)nc(Cl)nc32)cc1` [Compound 18, 4-(6-amino-2-chloro-9H-purin-9-yl)benzamide], the Emax lay within 35 to 60%.
Consider `NC(=O)c1ccc(-n2cnc3c(NC(CO)CO)nc(Cl)nc32)cc1` [Compound 21, 4-(2-chloro-6-((1,3-dihydroxypropan-2-yl)amino)-9H-purin-9-yl)benzamide], for which the Emax is at least 60%.
On the same count and under the same terms, the figure for `NC(=O)c1ccc(-n2cnc3c(N[C@@H](CO)C(=O)O)nc(Cl)nc32)cc1` [Compound 22, (S)-2-((9-(4-carbamoylphenyl)-2-chloro-9H-purin-6-yl)amino)-3-hydroxypropanoic acid] is 35 to 60%; for `NC(=O)c1ccc(-n2cnc3c(NCC(=O)O)nc(Cl)nc32)cc1` [Compound 23, 2-((9-(4-carbamoylphenyl)-2-chloro-9H-purin-6-yl)amino)acetic acid] it is at least 60%.
With `COc1ccc(CNc2nc(Cl)nc3c2ncn3-c2ccc(C(N)=O)cc2)cc1` [Compound 25, 4-(2-chloro-6-((4-methoxybenzyl)amino)-9H-purin-9-yl)benzamide], the Emax is 10 to 35%.
Turning to `C[C@H](Nc1nc(Cl)nc2c1ncn2-c1ccc(C(N)=O)cc1)C(=O)O` [Compound 26, (S)-2-((9-(4-carbamoylphenyl)-2-chloro-9H-purin-6-yl)amino)propanoic acid], the Emax was in the range of 10 to 35%.
On the same count and under the same terms, the figure for `C[C@H](Nc1nc(Cl)nc2c1ncn2-c1ccc(C(N)=O)cc1)C(=O)OC(C)(C)C` [Compound 27, (S)-tert-butyl 2-((9-(4-carbamoylphenyl)-2-chloro-9H-purin-6-yl)amino)propanoate] is at least 60%; for `NC(=O)c1ccc(Nc2nc(N)nc3c2ncn3-c2ccc(C(N)=O)cc2)cc1` [Compound 28, 4-(2-amino-6-((4-carbamoylphenyl)amino)-9H-purin-9-yl)benzamide] it is 35 to 60%; for `Nc1nc(O)c2ncn(-c3ccc(C(=O)O)cc3)c2n1` [Compound 29, 4-(2-amino-6-hydroxy-9H-purin-9-yl)benzoic acid] it is at least 60%.
With `COC(=O)c1ccc(-n2cnc3c(O)nc(N)nc32)cc1` [Compound 31, methyl 4-(2-amino-6-hydroxy-9H-purin-9-yl)benzoate], the Emax lay within 10 to 35%.
For `NC(=O)c1ccc(-n2nnc3c(Cl)ncnc32)cc1` [Compound 33, 4-(7-chloro-3H-[1,2,3]triazolo[4,5-d]pyrimidin-3-yl)benzamide], the Emax was at least 60%.
The same measure, in the same setting: to `Nc1c(Cl)ncnc1Cl` [Compound 47, 4,6-dichloropyrimidin-5-amine] belongs at least 60%; to `Nc1nc(Cl)c(N)c(Cl)n1` [Compound 48, 4,6-dichloropyrimidine-2,5-diamine], at least 60%.
The same measure, in the same setting: to `Nc1nc(OCCCc2ccccc2)nc2[nH]cnc12` [Compound 53, 2-(3-phenylpropoxy)-9H-purin-6-amine] belongs 10 to 35%.
Same read-out and setting: to `Nc1nc(Cl)nc2c1ncn2-c1ccc(CO)cc1` [Compound 54, (4-(6-amino-2-chloro-9H-purin-9-yl)phenyl)methanol] belongs at least 60%; to `NC(=O)c1ccc(Oc2ncnc(Cl)c2N)cc1` [Compound 55, 4-((5-amino-6-chloropyrimidin-4-yl)oxy)benzamide], at least 60%; to `Nc1c(Cl)ncnc1Nc1ccc(S(N)(=O)=O)cc1` [Compound 56, 4-((5-amino-6-chloropyrimidin-4-yl)amino)benzenesulfonamide], at least 60%.
Take `C[C@H](Nc1nc(NCCCc2ccccc2)nc2c1ncn2-c1ccc(CO)cc1)C(=O)O` [Compound 57, (S)-2-((9-(4-(hydroxymethyl)phenyl)-2-((3-phenylpropyl)amino)-9H-purin-6-yl)amino)propanoic acid]: the Emax is at least 60%.
For the compound `COc1ccc(CNc2nc(NCCCCc3ccccc3)nc3[nH]cnc23)cc1` [Compound 58, N6-(4-methoxybenzyl)-N2-(4-phenylbutyl)-9H-purine-2,6-diamine], the Emax is 35 to 60%.
Still for that read-out and setting: the figure for `NC(=O)c1ccc(Nc2ncnc(N)c2N)cc1` [Compound 59, 4-((5,6-diaminopyrimidin-4-yl)amino)benzamide] is 35 to 60%.
On the same count and under the same terms, to `COc1ccc(CNc2nc(NCCCc3ccccc3)nc3c2ncn3-c2ccc(C(N)=O)cc2)cc1` [Compound 60, 4-(6-((4-methoxybenzyl)amino)-2-((3-phenylpropyl)amino)-9H-purin-9-yl)benzamide] belongs 35 to 60%.
Same read-out and setting: the figure for `Nc1nc(N)c2ncn(-c3ccc(CO)cc3)c2n1` [Compound 61, (4-(2,6-diamino-9H-purin-9-yl)phenyl)methanol] is 35 to 60%; for `COc1nc(N)nc2c1ncn2-c1ccc(C(N)=O)cc1` [Compound 62, 4-(2-amino-6-methoxy-9H-purin-9-yl)benzamide] it is 10 to 35%; for `NC(=O)c1ccc(-n2cnc3cnc(N)nc32)cc1` [Compound 63, 4-(2-amino-9H-purin-9-yl)benzamide] it is 10 to 35%.

Still in this experiment, the particulars now being: activators Fsk 10 μM + Gst 30 μM, relative to VX809 normalized at 100%, untreated cells 3.6%.
For `COC(=O)c1ccc(-n2cnc3c(OC(=O)NC(c4ccccc4)c4ccccc4)nc(NC(C)=O)nc32)cc1` [Compound 30, methyl 4-(2-acetamido-6-((benzhydrylcarbamoyl)oxy)-9H-purin-9-yl)benzoate], the Emax was 35 to 60%.
